Where “and” joins values, the source holds several entries; their conditions need not be identical. Identical values can stand only once. One block for each compound: values may come before it.
System: 519858-162-T-J1-PDC complex spheroid viability
Assay: Anticancer human tumor 519858-162-T-J1-PDC patient-derived colon adenocarcinoma cell line growth inhibition [GQUAD]
Settings: for viability, T/C: stronger effect = lower value
Source text: DNA G-quadruplex Stabilizer Agents in Combinations in Complex Spheroids
A high-throughput screen of multi-cell type tumor spheroids was designed to identify active combinations of DNA G-quadruplex stabilizer agents and targeted small molecules. Complex spheroids include a stromal component modeled by human endothelial cells (HUVEC) and fibroblasts modeled by human mesenchymal stem cells (MSCs). The concentration ranges selected for each drug and investigational agent were based upon clinically achievable concentrations if the clinical Cmax of the agent was known.
Compounds. The drugs and investigational agents: pidnarulex (CX-5461; NSC782164), APTO-253 (NSC789042), BRACO-19 (NSC847499), peposertib (NSC802822), ceralasertib (NSC780249), elimusertib (NSC800525), camonsertib (NSC841442), AZD-1390 (NSC803789), olaparib (NSC753686), talazoparib (NSC767125), ART-558 (NSC835418), sotorasib (NSC818433), MRTX-1133 (NSC836407), SN-38 (NSC673596), topotecan (NSC609699), etoposide (NSC141540), doxorubicin (NSC123127), gemcitabine (NSC613327), 5-fluorouracil (NSC19893), paclitaxel (NSC125973), vemurafenib (NSC761431), panobinostat (NSC761190), R-306465 (JNJ-16241199; NSC773264), adavosertib (NSC754352), TP-3654 (NSC805149), carboplatin (NSC241240), KSQ-4279 (NSC840948), and staurosporine (NSC755774) were obtained from the National Cancer Institute (NCI) Developmental Therapeutics Program Chemical Repository (34). The FDA-approved anticancer drug set is available from the NCI Developmental Therapeutics Program. […] The stock solutions were prepared in dimethyl sulfoxide (DMSO, Sigma-Aldrich, St. Louis, MO, cat. D2650) at 800-fold the tested concentration and stored at -70 degrees C prior to their use. All drugs and investigational agents were tested over a range starting from a high concentration at or near the clinical Cmax and decreasing in half-log increments. If the clinical Cmax for an agent had not been determined, the highest concentration tested was 10 microM.
2.3 Cell Culture. All cells were maintained in an incubator at 37 degrees C and 5% CO2 with 95% humidity. The PDC lines were cultured according to standard operating procedures established by the NCI PDMR. All PDCs were thawed and cultured in Matrigel-coated flasks prepared with a working solution of 1X Ham's F-12 nutrient mix, without supplementation (Invitrogen, cat. 11765054), 100 U/mL penicillin-streptomycin (Invitrogen, cat. 15140122), and 2.5% Matrigel (Corning Inc., cat. 354248) for the first three passages. The 857933-349-R-J2-PDC line was cultured in 6C/Colon 1B media, which includes advanced DMEM/F-12 (Thermo Fisher Scientific, cat. 12634028), 10 mM HEPES (Thermo Fisher Scientific, cat. 15630080), 1X GlutaMAX supplement (Thermo Fisher Scientific, cat. 35050061), 0.1 mg/mL primocin (InvivoGen, cat. ant-pm-2), 10% defined fetal bovine serum, heat inactivated (HyClone Laboratories Inc., cat. SH30070.03HI), 50% L-WRN conditioned media (ATCC, cat. CRL-3276), 1.25 mM N-Acetyl-L-cysteine (Sigma-Aldrich, cat. A9165), 10 mM nicotinamide (Sigma-Aldrich, cat. N0636), 1X B-27 supplement (Thermo Fisher Scientific, cat. 17504044), 1X N-2 supplement (Thermo Fisher Scientific, cat. 17502048), 10 microM Y-27632 dihydrochloride (Tocris Bioscience, cat. 1254), and 50 ng/mL human EGF recombinant protein (Thermo Fisher Scientific, cat. PHG0311). The 485176-168-R4-J1-PDC line was cultured in Panc media, which includes all 6C/Colon 1B media components plus 100 ng/mL human FGF-10 (Thermo Fisher Scientific, cat. 100-26), 500 nM SB-431542 (Selleckchem, cat. S1067), and gastrin (Tocris, cat. 3006).
[…]
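Further: spheroids exposed to compounds for 7 days.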
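Wherever viability, T/C is given: 100% = DMSO vehicle control viability.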

SMILES: Nc1ccn(C2OC(CO)C(O)C2(F)F)c(=O)n1 (stereo not given)
viability, T/C (compound 0.0316 µM): 78.1%
viability, T/C (compound 0.1 µM): 91.4%
viability, T/C (compound 0.316 µM): 92.2%
viability, T/C (compound 1 µM): 94.6%
viability, T/C (compound 3.16 µM): 96.3%
viability, T/C (compound 10 µM): 79%
IC50 (curve of compound): > 10 µM

SMILES: C=CCn1c(=O)c2cnc(Nc3ccc(N4CCN(C)CC4)cc3)nc2n1-c1cccc(C(C)(C)O)n1
viability, T/C (compound 0.0316 µM): 83% and 81.4%
viability, T/C (compound 0.1 µM): 107% and 106%
viability, T/C (compound 0.316 µM): 126% and 105%
viability, T/C (compound 1 µM): 104% and 95.3%
viability, T/C (compound 3.16 µM): 83.3% and 94.8%
viability, T/C (compound 10 µM): 92.4% and 92.1%
IC50 (curve of compound): > 10 µM

SMILES: CC1COCCN1c1cc(-c2ccnn2C)c2ccnc(-c3ccn[nH]3)c2n1 (stereo not given) + CN(C)c1ccc(Nc2c3ccc(NC(=O)CCN4CCCC4)cc3nc3cc(NC(=O)CCN4CCCC4)ccc23)cc1
IC50 (curve of first compound, second compound 0.0316 µM): 4.24 µM
IC50 (curve of first compound, second compound 0.1 µM): 4.35 µM
IC50 (curve of first compound, second compound 0.316 µM): 7.09 µM
IC50 (curve of first compound, second compound 1 µM): 4.74 µM
IC50 (curve of first compound, second compound 3.16 µM): 5.33 µM
IC50 (curve of first compound, second compound 10 µM): 4.46 µM
viability, T/C (second compound 0.0316 µM, first compound 0.0316 µM): 87.2%
viability, T/C (second compound 0.0316 µM, first compound 0.1 µM): 125%
viability, T/C (second compound 0.0316 µM, first compound 0.316 µM): 88%
viability, T/C (second compound 0.0316 µM, first compound 1 µM): 101%
viability, T/C (second compound 0.0316 µM, first compound 3.16 µM): 54%
viability, T/C (second compound 0.0316 µM, first compound 10 µM): 38%
viability, T/C (second compound 0.1 µM, first compound 0.0316 µM): 78.2%
viability, T/C (second compound 0.1 µM, first compound 0.1 µM): 106%
viability, T/C (second compound 0.1 µM, first compound 0.316 µM): 86.4%
viability, T/C (second compound 0.1 µM, first compound 1 µM): 124%
viability, T/C (second compound 0.1 µM, first compound 3.16 µM): 55.4%
viability, T/C (second compound 0.1 µM, first compound 10 µM): 36.1%
viability, T/C (second compound 0.316 µM, first compound 0.0316 µM): 91.3%
viability, T/C (second compound 0.316 µM, first compound 0.1 µM): 86.8%
viability, T/C (second compound 0.316 µM, first compound 0.316 µM): 79.3%
viability, T/C (second compound 0.316 µM, first compound 1 µM): 101%
viability, T/C (second compound 0.316 µM, first compound 3.16 µM): 79.6%
viability, T/C (second compound 0.316 µM, first compound 10 µM): 37.4%
viability, T/C (second compound 1 µM, first compound 0.0316 µM): 100%
viability, T/C (second compound 1 µM, first compound 0.1 µM): 85.7%
viability, T/C (second compound 1 µM, first compound 0.316 µM): 73.8%
viability, T/C (second compound 1 µM, first compound 1 µM): 102%
viability, T/C (second compound 1 µM, first compound 3.16 µM): 63.4%
viability, T/C (second compound 1 µM, first compound 10 µM): 25.3%
viability, T/C (second compound 3.16 µM, first compound 0.0316 µM): 87.5%
viability, T/C (second compound 3.16 µM, first compound 0.1 µM): 83.9%
viability, T/C (second compound 3.16 µM, first compound 0.316 µM): 106%
viability, T/C (second compound 3.16 µM, first compound 1 µM): 92.4%
viability, T/C (second compound 3.16 µM, first compound 3.16 µM): 58.7%
viability, T/C (second compound 3.16 µM, first compound 10 µM): 39.5%
viability, T/C (second compound 10 µM, first compound 0.0316 µM): 71.2%
viability, T/C (second compound 10 µM, first compound 0.1 µM): 101%
viability, T/C (second compound 10 µM, first compound 0.316 µM): 73.5%
viability, T/C (second compound 10 µM, first compound 1 µM): 100%
viability, T/C (second compound 10 µM, first compound 3.16 µM): 51.1%
viability, T/C (second compound 10 µM, first compound 10 µM): 47.3%

Continued, in another order:

IC50 (curve of compound): > 0.316 µM
SMILES: CCc1c2c(nc3ccc(O)cc13)-c1cc3c(c(=O)n1C2)COC(=O)[C@]3(O)CC
viability, T/C (compound 0.000999 µM): 95% and 84%
viability, T/C (compound 0.00316 µM): 74.7% and 67.6%
viability, T/C (compound 0.00999 µM): 43.7% and 57.5%
viability, T/C (compound 0.0316 µM): 68.9% and 65.7%
viability, T/C (compound 0.0999 µM): 89.6% and 60.6%
viability, T/C (compound 0.316 µM): 64.6% and 78.9%

IC50 (curve of compound): > 0.316 µM
SMILES: Cc1[nH]c2ccccc2c1CCNCc1ccc(/C=C/C(=O)NO)cc1
viability, T/C (compound 0.000999 µM): 94.4%
viability, T/C (compound 0.00316 µM): 108%
viability, T/C (compound 0.00999 µM): 74.3%
viability, T/C (compound 0.0316 µM): 107%
viability, T/C (compound 0.0999 µM): 75.5%
viability, T/C (compound 0.316 µM): 50.6%

Reference: PubChem BioAssay AID2060507 (Molecular Pharmacology Branch, DTP, NCI, 2025)
